Assay results published in patent publication US12110507B2, “Method for preparing functional hepatic progenitor cells or hepatic cells, or functional small intestinal epithelial progenitor cells or small intestinal epithelial cells” (priority 2017, dated 2024).
Read-outs that look alike come from different tables or passages of the source.

Columns and labels:
[1] = test system: hepatic progenitor cells differentiated from iPSC-K cells; assay: culture of hepatic progenitor cells differentiated from iPSC-K cells in the presence of an antibiotic (selection); format: cell-based, human; details: for colony of cells after culture with antibiotic: concentration and culture period of each antibiotic as in Table 5
Description: The iPSC-K cells were cultured until becoming approximately 80% confluent. […] The colony was dissociated by gentle tapping of the dish and then suspended by the addition of hiPSC medium. The obtained cell suspension was transferred to a dish coated with gelatin, and incubated under conditions of 15 minutes, 37° C., and 5% CO2 to remove the feeder cells. The supernatant was centrifuged, and the recovered iPSC-K cells were suspended in EB medium (having the composition described below).
The EBs were recovered and suspended in XF32 medium (Uchida, H. et al., JCI Insight, 2017; 2 (1): e86492, doi:10.1172/jci.insight.86492). The EBs were placed at a concentration of 20 EBs/well in a 24-well plate coated with collagen, and differentiated into hepatic progenitor cells by adhesion culture at 37° C. for 35 days in 5% CO2. Then, the cells were further cultured for 2 days using modified SCM-6F8 medium (Wang, X. et al., Nature, 2015; 522 (7555): 173-8, doi:10.1038/nature14484, Epub 2015 Jun. 3) supplemented with 3 μg/ml puromycin (Wako Pure Chemical Industries, Ltd., #160-23151).
Functional hepatic progenitor cells were prepared from iPSC-K cells by the same procedures as in the sections (2-1) and (2-2) except that various antibiotics were used instead of puromycin. The antibiotics used and their concentrations, and the number of culture days will be shown below.

[2] = test system: hepatic progenitor cells differentiated from SEES5 cells; assay: culture of hepatic progenitor cells differentiated from SEES5 cells in the presence of an antibiotic (selection); format: cell-based, human; details: for colony of cells after culture with antibiotic: concentration and culture period of each antibiotic as in Table 6 (3 days)
[3] = test system: functional hepatic progenitor cells prepared from SEES5 cells; details: 5 mg/ml or 8 mg/ml ammonia, 2 days, after puromycin selection
[4] = test system: functional hepatic progenitor cells prepared from iPSC-O cells; assay: selective culture with ammonia of functional hepatic progenitor cells prepared from iPSC-O cells; qRT-PCR after differentiation
[5] = test system: gut organoid differentiated from Edom-iPS cells; assay: culture of gut organoid in the presence of puromycin; format: cell-based; details: 2 days
Description: Gut organoid was prepared from Edom-iPS cells (PLoS Genet., 2011; 7 (5):e1002085, doi.org/10.1371/journal.pgen.1002085), menstrual blood-derived iPS cells, according to the procedures described in Uchida, H. et al., JCI Insight, 2017; 2 (1): e86492. After a lapse of 3 months, the gut organoid was cultured for 2 days in the presence of […] puromycin.

[6] = conditions of Table 6, data not shown
[7] = hepatic cells differentiated from cells selected with ammonia, qRT-PCR, vs no ammonia selection

| Compound | colony of cells after culture with antibiotic [1] | colony of cells after culture with antibiotic [2] | CYP3A4 expression of the cells selected with antibiotic [2, 6] | also measured |
| --- | --- | --- | --- | --- |
| CN[C@@H]1[C@@H](O)[C@@H](O[C@@H]2[C@@H](O)[C@H](O[C@H]3O[C@H]([C@@H](C)O)[C@@H](O)[C@H](O)[C@H]3N)[C@@H](N)C[C@H]2N)OC[C@]1(C)O [G418] | A colony of the cells was obtained | A colony of the cells was obtained | markedly high level | – |
| Cc1c(N)nc([C@H](CC(N)=O)NC[C@H](N)C(N)=O)nc1C(=O)N[C@H](C(=O)N[C@H](C)[C@@H](O)[C@H](C)C(=O)N[C@H](C(=O)NCCC1=N[C@@H](c2nc(C(=O)NCCCCN=C(N)N)cs2)CS1)[C@@H](C)O)[C@@H](O[C@@H]1O[C@@H](CO)[C@@H](O)[C@H](O)[C@@H]1O[C@H]1O[C@H](CO)[C@@H](O)[C@H](OC(N)=O)[C@@H]1O)c1cnc[nH]1 [Zeocin™, phleomycin D1] | A colony of the cells was obtained | A colony of the cells was obtained | – | CYP3A4 expression of the cells selected with antibiotic [2]: markedly high level |
| N [ammonia] | – | – | – | colony formation after selective culture with ammonia [3]: A colony was formed; colony formation after selective culture with ammonia ([4]; 5 mg/ml or 8 mg/ml ammonia, 2 days, after puromycin selection): A colony was formed; expression level of CPS1 [4, 7]: Elevation; expression level of CYP3A4 [4, 7]: further elevate; expression level of OTC [4, 7]: Elevation |
| CN(CC[C@H](N)CC(=O)N[C@H]1C=C[C@H](n2ccc(N)nc2=O)O[C@@H]1C(=O)O)C(=N)N [blasticidin S] | A colony of the cells was obtained | A colony of the cells was obtained | markedly high level | – |
| COc1ccc(C[C@H](N)C(=O)N[C@H]2[C@@H](O)[C@H](n3cnc4c(N(C)C)ncnc43)O[C@@H]2CO)cc1 [puromycin] | – | A colony of the cells was obtained | markedly high level | colony of cells after culture in the presence of puromycin ([1]; 3 μg/ml puromycin, 2 days, modified SCM-6F8 medium): colony of the cells; cells obtained after puromycin culture of gut organoid ([5]; 2 mg/ml puromycin): Functional small intestinal epithelial progenitor cells having the ability to metabolize drugs were obtained; cells obtained after puromycin culture of gut organoid ([5]; 400 mg/ml puromycin): Functional small intestinal epithelial progenitor cells having the ability to metabolize drugs were obtained |
| phleomycin | A colony of the cells was obtained | A colony of the cells was obtained | – | – |
